Among the data in ChEMBL document CHEMBL5653615 (J Biol Chem, 2013) are inhibition values, retold here.

As a reminder, the inhibition is the change of the read-out against control, counted positive when it falls.

For assay [1], the target named is Ribosomal protein S6 kinase beta-1 (Homo sapiens) (UniProt P23443). Briefly: Inhibition of human RPS6KB1 at 18.6 nM by HotSpot assay relative to control.
The target of assay [2] is T1, Lymphokine-activated killer T-cell-originated protein kinase (Homo sapiens) (UniProt Q96KB5).
T1 sequence (whole entry): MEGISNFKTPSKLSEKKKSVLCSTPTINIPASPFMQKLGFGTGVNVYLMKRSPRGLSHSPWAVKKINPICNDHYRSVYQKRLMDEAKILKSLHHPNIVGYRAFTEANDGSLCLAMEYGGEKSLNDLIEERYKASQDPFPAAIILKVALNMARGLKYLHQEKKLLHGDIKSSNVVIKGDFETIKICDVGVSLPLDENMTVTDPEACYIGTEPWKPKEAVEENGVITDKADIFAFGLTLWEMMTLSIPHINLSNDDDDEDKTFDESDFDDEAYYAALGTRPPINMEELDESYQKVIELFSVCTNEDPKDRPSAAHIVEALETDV
Nature of the assay: Inhibition of human TOPK at 18.6 nM by HotSpot assay relative to control.

For assay [3], the target named is Serine/threonine-protein kinase PAK 1 (Homo sapiens) (UniProt Q13153). Nature of the assay: Inhibition of human PAK1 at 18.6 nM by HotSpot assay relative to control.
Assay [4] deals with T2, Serine/threonine-protein kinase D3 (Homo sapiens) (UniProt O94806).
T2 sequence (whole entry): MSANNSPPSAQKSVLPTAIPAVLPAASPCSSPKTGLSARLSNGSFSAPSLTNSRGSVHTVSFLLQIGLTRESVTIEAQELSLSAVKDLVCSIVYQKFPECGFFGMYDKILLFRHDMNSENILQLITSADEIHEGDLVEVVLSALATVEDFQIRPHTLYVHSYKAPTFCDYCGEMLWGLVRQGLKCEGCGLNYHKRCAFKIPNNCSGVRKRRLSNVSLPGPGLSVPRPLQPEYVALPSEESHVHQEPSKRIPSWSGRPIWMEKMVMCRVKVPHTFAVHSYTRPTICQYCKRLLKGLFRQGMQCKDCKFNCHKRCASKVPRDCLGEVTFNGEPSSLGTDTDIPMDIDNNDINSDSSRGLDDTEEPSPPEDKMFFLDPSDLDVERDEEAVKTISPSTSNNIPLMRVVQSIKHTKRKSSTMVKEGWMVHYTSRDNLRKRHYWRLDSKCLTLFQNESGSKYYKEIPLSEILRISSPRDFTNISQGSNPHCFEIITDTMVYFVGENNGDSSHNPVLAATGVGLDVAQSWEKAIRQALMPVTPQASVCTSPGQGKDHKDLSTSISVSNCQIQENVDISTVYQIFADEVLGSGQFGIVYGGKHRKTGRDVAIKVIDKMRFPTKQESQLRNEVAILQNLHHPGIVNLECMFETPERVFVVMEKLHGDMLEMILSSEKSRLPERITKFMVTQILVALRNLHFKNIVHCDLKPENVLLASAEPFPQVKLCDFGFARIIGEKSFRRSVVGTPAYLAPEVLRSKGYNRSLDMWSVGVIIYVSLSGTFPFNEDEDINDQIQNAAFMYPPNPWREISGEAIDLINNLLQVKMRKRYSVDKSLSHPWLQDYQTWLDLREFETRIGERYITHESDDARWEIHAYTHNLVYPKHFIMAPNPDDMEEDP
Nature of the assay: Inhibition of human PRKD3 at 18.6 nM by HotSpot assay relative to control.

The target in assay [5] is RAC-alpha serine/threonine-protein kinase (Homo sapiens) (UniProt P31749). Nature of the assay: Inhibition of human AKT1 at 18.6 nM by HotSpot assay relative to control.
Assay [6] has as its target Protein kinase C delta type (Homo sapiens) (UniProt Q05655). Nature of the assay: Inhibition of human PKCd at 1.82 nM by HotSpot assay relative to control.
The target in assay [7] is T3, NUAK family SNF1-like kinase 1 (Homo sapiens) (UniProt O60285).
T3 sequence (whole entry): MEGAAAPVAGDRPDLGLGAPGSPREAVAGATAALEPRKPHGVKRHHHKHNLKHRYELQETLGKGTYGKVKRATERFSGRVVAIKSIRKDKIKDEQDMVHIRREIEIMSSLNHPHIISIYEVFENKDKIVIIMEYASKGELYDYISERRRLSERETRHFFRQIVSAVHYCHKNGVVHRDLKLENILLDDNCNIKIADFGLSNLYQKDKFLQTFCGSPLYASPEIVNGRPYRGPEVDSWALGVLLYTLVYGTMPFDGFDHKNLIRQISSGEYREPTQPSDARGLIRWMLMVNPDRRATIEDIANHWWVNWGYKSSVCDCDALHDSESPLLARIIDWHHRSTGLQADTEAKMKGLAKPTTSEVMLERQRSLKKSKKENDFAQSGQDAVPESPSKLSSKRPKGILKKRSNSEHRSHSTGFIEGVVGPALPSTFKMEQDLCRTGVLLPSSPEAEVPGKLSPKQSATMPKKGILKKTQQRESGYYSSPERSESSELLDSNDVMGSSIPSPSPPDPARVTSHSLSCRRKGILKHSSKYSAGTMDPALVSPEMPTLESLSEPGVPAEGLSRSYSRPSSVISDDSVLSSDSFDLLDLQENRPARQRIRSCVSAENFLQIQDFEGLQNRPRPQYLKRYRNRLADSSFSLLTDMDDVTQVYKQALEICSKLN
Briefly: Inhibition of human ARK5 at 1.82 nM by HotSpot assay relative to control.

In assay [8] the target is T4, G protein-coupled receptor kinase 3 (Homo sapiens) (UniProt P35626).
T4 sequence (whole entry): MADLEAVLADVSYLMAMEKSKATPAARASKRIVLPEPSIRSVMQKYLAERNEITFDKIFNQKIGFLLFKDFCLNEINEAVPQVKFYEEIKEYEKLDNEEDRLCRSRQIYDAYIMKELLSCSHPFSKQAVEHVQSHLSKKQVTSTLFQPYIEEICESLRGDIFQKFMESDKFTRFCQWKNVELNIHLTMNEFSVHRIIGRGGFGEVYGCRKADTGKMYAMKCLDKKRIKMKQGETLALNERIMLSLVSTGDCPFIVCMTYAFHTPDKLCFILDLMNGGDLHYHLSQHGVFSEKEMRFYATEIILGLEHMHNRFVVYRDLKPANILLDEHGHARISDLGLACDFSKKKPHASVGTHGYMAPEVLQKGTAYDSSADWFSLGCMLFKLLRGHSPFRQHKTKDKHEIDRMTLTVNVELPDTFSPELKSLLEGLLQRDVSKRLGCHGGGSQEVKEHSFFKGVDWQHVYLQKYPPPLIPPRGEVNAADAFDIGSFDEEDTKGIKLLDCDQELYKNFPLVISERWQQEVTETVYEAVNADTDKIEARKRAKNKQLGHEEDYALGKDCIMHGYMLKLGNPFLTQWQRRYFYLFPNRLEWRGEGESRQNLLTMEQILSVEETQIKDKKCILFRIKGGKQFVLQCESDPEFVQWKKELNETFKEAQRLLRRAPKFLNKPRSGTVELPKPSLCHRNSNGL
Nature of the assay: Inhibition of human GRK3 at 1.82 nM by HotSpot assay relative to control.

Chain of Protein kinase C delta type (Homo sapiens) (Q05655 whole entry, looked up): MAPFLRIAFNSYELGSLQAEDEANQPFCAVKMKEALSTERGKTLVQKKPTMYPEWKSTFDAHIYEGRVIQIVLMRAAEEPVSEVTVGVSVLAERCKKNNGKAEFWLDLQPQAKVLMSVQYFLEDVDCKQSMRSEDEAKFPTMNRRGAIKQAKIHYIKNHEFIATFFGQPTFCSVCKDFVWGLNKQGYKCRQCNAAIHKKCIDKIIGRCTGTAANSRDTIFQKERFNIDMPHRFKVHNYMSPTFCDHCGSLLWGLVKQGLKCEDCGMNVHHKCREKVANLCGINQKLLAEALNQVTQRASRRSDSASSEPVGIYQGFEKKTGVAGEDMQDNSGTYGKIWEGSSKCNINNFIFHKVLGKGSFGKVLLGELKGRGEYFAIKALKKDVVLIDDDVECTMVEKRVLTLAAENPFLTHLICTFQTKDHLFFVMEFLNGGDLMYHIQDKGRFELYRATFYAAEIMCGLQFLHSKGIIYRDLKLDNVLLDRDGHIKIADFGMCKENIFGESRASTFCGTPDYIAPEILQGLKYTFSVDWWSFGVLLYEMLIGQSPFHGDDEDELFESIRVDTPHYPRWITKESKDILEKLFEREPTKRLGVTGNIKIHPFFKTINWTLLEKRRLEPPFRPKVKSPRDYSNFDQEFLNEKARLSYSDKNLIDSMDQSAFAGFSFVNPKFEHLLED
Chain of Serine/threonine-protein kinase PAK 1 (Homo sapiens) (Q13153 whole entry): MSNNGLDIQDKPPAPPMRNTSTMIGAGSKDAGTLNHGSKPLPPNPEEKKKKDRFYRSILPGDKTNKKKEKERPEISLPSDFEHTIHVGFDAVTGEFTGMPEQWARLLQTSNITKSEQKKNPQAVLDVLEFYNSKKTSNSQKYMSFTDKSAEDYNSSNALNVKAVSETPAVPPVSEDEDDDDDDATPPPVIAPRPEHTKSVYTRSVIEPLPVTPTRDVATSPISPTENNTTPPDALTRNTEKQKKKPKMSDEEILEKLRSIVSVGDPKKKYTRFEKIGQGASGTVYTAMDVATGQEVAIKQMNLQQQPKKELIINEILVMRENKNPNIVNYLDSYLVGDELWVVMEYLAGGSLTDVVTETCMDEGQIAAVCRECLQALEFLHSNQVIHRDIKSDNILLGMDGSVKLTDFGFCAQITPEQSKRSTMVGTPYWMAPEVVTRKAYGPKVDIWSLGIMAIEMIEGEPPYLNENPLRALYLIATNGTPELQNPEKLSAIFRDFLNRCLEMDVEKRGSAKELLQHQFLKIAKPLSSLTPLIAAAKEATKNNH
Chain of Ribosomal protein S6 kinase beta-1 (Homo sapiens) (P23443 whole entry, looked up): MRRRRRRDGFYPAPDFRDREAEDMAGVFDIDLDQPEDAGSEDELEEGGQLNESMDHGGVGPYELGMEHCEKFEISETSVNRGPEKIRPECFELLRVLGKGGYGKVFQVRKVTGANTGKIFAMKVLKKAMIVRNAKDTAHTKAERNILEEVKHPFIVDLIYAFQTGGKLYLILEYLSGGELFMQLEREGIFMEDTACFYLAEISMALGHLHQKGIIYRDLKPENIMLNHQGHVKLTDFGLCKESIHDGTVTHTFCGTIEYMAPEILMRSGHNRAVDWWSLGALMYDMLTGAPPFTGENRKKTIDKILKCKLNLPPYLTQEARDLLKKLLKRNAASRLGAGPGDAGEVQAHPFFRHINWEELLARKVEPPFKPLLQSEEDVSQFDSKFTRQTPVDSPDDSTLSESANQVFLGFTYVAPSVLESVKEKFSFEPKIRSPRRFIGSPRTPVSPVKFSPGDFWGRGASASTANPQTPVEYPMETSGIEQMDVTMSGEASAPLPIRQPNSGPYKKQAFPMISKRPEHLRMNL
Chain of RAC-alpha serine/threonine-protein kinase (Homo sapiens) (P31749 whole entry): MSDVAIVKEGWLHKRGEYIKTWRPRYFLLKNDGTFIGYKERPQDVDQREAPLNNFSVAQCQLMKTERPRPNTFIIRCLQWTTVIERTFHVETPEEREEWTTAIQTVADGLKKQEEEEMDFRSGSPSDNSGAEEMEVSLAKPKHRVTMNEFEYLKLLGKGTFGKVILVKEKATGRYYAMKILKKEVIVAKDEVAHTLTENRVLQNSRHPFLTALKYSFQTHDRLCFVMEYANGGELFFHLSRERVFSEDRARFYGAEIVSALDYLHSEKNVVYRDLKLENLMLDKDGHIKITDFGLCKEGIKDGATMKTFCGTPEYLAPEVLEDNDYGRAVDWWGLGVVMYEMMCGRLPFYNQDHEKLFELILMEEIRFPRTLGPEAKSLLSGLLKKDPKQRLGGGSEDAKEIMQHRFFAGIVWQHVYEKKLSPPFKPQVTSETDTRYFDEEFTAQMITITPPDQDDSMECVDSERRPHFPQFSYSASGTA

`C[C@]1(O)C[C@@H](c2nc(-c3ccc4ccc(-c5ccccc5)nc4c3)c3c(N)nccn32)C1`: the inhibition in assay [1] was -4.9%; in assay [2], 1.57%; in assay [3], -0.8%; in assay [4], 9.14%; in assay [5], -3.01%.
Regarding `C[C@@]1(C(=O)Nc2ccc(F)nc2)CCCN1c1nc(Nc2cc(C3CC3)n[nH]2)c2cccn2n1`, the inhibition is -1.35% in assay [6], 1.78% in assay [7] and -5.67% in assay [8].
